Data reported in article PMC5362036, “Cohesive Properties of the Caulobacter crescentus Holdfast Adhesin Are Regulated by a Novel c-di-GMP Effector Protein” (mBio, 2017).

Assays:
Format in all cases: binding
[1] = target: T1, HfsK (CC3689) (Caulobacter vibrioides, UniProt Q9A277, R112A); experiment: UV cross-linking with […]c-di-GMP; details: StrepII-tagged, 1 uM protein; labelled compound
T1 construct: gene CC_3689; full length; His-tagged (ITC) or StrepII-tagged (mutants, UV cross-linking), expressed in E. coli; tags kept as far as told

[2] = target: T2, HfsK (CC3689) (Caulobacter vibrioides, UniProt Q9A277, R240A); experiment: UV cross-linking with […]c-di-GMP; details: StrepII-tagged, 1 uM protein; labelled compound
T2 construct: gene CC_3689; full length; His-tagged (ITC) or StrepII-tagged (mutants, UV cross-linking), expressed in E. coli; tags kept as far as told

[3] = target: T3, HfsK (CC3689) (Caulobacter vibrioides, UniProt Q9A277, R151A); experiment: UV cross-linking with […]c-di-GMP; details: StrepII-tagged, 1 uM protein; labelled compound
T3 construct: gene CC_3689; full length; His-tagged (ITC) or StrepII-tagged (mutants, UV cross-linking), expressed in E. coli; tags kept as far as told

[4] = target: T4, HfsK (CC3689) (Caulobacter vibrioides, UniProt Q9A277); experiment: isothermal titration calorimetry
T4 construct: gene CC_3689; full length; His-tagged (ITC) or StrepII-tagged (mutants, UV cross-linking), expressed in E. coli; tags kept as far as told
Description: isothermal titration calorimetry on HfsK (CC3689) | His-CC3689 bound c-di-GMP in a concentration-dependent manner with an equilibrium disassociation constant (Kd)

[5] = target: T5, HfsK (CC3689) (Caulobacter vibrioides, UniProt Q9A277, R102A); experiment: UV cross-linking with […]c-di-GMP; details: StrepII-tagged, 1 uM protein; labelled compound
T5 construct: gene CC_3689; full length; His-tagged (ITC) or StrepII-tagged (mutants, UV cross-linking), expressed in E. coli; tags kept as far as told

[6] = target: T6, HfsK (CC3689) (Caulobacter vibrioides, UniProt Q9A277, R267A); experiment: UV cross-linking with […]c-di-GMP; details: StrepII-tagged, 1 uM protein; labelled compound
T6 construct: gene CC_3689; full length; His-tagged (ITC) or StrepII-tagged (mutants, UV cross-linking), expressed in E. coli; tags kept as far as told
T6 sequence (Q9A277 entry or part of it R267A): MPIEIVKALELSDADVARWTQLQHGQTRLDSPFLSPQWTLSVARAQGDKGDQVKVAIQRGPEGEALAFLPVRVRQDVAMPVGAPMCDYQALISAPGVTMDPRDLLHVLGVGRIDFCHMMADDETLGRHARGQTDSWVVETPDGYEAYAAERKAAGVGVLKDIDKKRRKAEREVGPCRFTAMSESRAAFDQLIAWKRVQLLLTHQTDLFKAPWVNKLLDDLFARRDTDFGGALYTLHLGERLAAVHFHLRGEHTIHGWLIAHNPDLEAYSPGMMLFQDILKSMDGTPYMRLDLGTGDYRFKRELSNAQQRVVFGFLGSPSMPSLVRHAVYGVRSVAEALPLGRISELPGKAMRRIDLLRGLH

T1 sequence (Q9A277 entry or part of it R112A): as the sequence (Q9A277 entry or part of it R267A) above, with R112A, A267R counted along it
T5 sequence (Q9A277 entry or part of it R102A): as the sequence (Q9A277 entry or part of it R267A) above, with R102A, A267R counted along it
T2 sequence (Q9A277 entry or part of it R240A): as the sequence (Q9A277 entry or part of it R267A) above, with R240A, A267R counted along it
T4 sequence (Q9A277 entry or part of it): as the sequence (Q9A277 entry or part of it R267A) above, with A267R counted along it
T3 sequence (Q9A277 entry or part of it R151A): as the sequence (Q9A277 entry or part of it R267A) above, with R151A, A267R counted along it

Compound: Nc1nc2c(ncn2[C@@H]2O[C@@H]3COP(=O)(O)O[C@H]4[C@@H](O)[C@H](n5cnc6c(=O)[nH]c(N)nc65)O[C@@H]4COP(=O)(O)O[C@H]3[C@H]2O)c(=O)[nH]1 [c-di-GMP]
- UV cross-linking with [33P]c-di-GMP [1]: HfsKR112a as the only mutant variant with reduced binding affinity for c-di-GMP
- UV cross-linking with [33P]c-di-GMP [2]: residues of HfsK (R102, R112, R151, R240, and R267) were replaced with alanine
- UV cross-linking with [33P]c-di-GMP [3]: residues of HfsK (R102, R112, R151, R240, and R267) were replaced with alanine
- Kd [4]: 724 nM
- UV cross-linking with [33P]c-di-GMP [5]: residues of HfsK (R102, R112, R151, R240, and R267) were replaced with alanine
- UV cross-linking with [33P]c-di-GMP [6]: residues of HfsK (R102, R112, R151, R240, and R267) were replaced with alanine
